For 2 compounds, MIC results are on record in patent EP0235823A2, “Carbapenem antibiotics, a process for preparing them and pharmaceutical compositions containing them” (Bristol-Myers Squibb Company, priority 1986, dated 1987).

Assay type in all cases: cell-based
One experiment relates to S.aureus A9537. The experiment is described as follows: In vitro antibacterial activity, MIC by tube dilution. The settings on record: Staphylococcus aureus, Nutrient Broth, overnight incubation at 37 deg. C. An excerpt: (§1) C by tube dilution. N-formimidoyl thienamycin was included as a comparison compound.
For the next experiment, the system named is S.faecalis A20688. The description is as above. The settings on record: Enterococcus faecalis, Nutrient Broth, overnight incubation at 37 deg. C.
Description: as §1

The subject of a further experiment is S.pneumoniae A9585. The experiment is described as above. The settings on record: Streptococcus pneumoniae, Nutrient Broth, overnight incubation at 37 deg. C.
Description: as §1

For the next experiment, the system named is S.pyogenes A9604. The experiment is described as above. The settings on record: Streptococcus pyogenes, Nutrient Broth, overnight incubation at 37 deg. C.
Description: as §1

Experiment [1] concerns S.aureus + 50% serum A9537S. The experiment is described as follows: In vitro antibacterial activity, MIC by tube dilution, with 50% serum. The settings on record: Staphylococcus aureus, read-out: MIC (mcg/ml).
Description: as §1

Values after ≈ are worked out from the molar mass of the structure shown.

Take `C[C@@H](O)[C@H]1C(=O)N2C(C(=O)[O-])=C(SCC[N+]34CCN(CC3)CC4)[C@H](C)[C@H]12` [Ex. 7, (5R,6S) 3-[2-(1,4-diazabicyclo[2.2.2.]octanium-1-yl)ethylthio]-6-(1R-hydroxyethyl)-4R-methy3-7-oxo-1-azabicyclo[3.2.0]hept-2-ene-2-carboxylate]: the MIC against S.aureus A9537 was 0.5 µg/mL (≈ 1.31 µM); against S.faecalis A20688, 2 µg/mL (≈ 5.24 µM); against S.pneumoniae A9585 it was 0.03 µg/mL (≈ 0.0786 µM); in the experiment with S.pyogenes A9604 it was 0.03 µg/mL (≈ 0.0786 µM); in experiment [1] it was 0.13 µg/mL (≈ 0.341 µM).
Consider `CC(O)C1C(=O)N2C(C(=O)O)=C(SCCN=CN)CC12` (stereo not shown) [N-Formimidoy Thienamycin, N-formimidoyl thienamycin], for which the MIC turned out to be 0.004 µg/mL (≈ 0.0134 µM) against S.aureus A9537; 0.25 µg/mL (≈ 0.835 µM) against S.faecalis A20688; 0.002 µg/mL (≈ 0.00668 µM) against S.pneumoniae A9585; 0.002 µg/mL (≈ 0.00668 µM) against S.pyogenes A9604; 0.016 µg/mL (≈ 0.0534 µM) in experiment [1].
